Assays:
Assay type in all cases: cell-based, human
[1] = tested on: HT1080; assay: in vitro cytotoxicity, HT1080 oral cancer cells; settings: for percentage cell growth (Activity status in terms of IC50 values) HT1080 Oral: 48 h continuous drug exposure, percent of cell growth relative to untreated control cells; for suppress HT1080 cell growth: suppression of cell growth, 48 h exposure
Experimental: (§1) Cytotoxicity: The compounds 7-methoxy-8-[3-(6-chloro-2-oxo-4-phenyl-1,2-dihydro-1-quinazolinyl)propoxy]-(11aS)-1,2,3,11a-tetrahydro-5H-pyrrolo[2,1-c][1,4]benzodiazepine-5-one and 7-methoxy-8-[5-(6-chloro-2-oxo-4-phenyl-1,2-dihydro-1-quinazolinyl)pentyloxy]-(11aS)-1,2,3,11a-tetrahydro-5H-pyrrolo [2,1-c][1,4]benzodiazepine-5-one were evaluated for in vitro anticancer activity against nine human tumour cells derived from six cancer types (colon, prostate, oral, lung, cervix and breast cancer) as shown in (Table 1).
(§2) Compounds 5d and 5f have been evaluated for their in vitro cytotoxicity in selected human cancer cell lines of colon (Colo205), lung (Hop-62), cervix (SiHa), prostate (DU145, PC3), oral (DWD, HT1080), and breast (MCF7, Zr-75-1) origin. A protocol of 48 h continuous drug exposure and an […] protein assay has been used to estimate cell viability or growth. The results are expressed as percent of cell growth determined relative to that of untreated control cells (Table 1).

[2] = tested on: DU145; assay: in vitro cytotoxicity, DU145 prostate cancer cells; settings: for percentage cell growth (Activity status in terms of IC50 values) DU145 Prostate: 48 h continuous drug exposure, percent of cell growth relative to untreated control cells; for suppress DU145 cell growth: suppression of cell growth, 48 h exposure
Experimental: as §1, §2

[3] = tested on: Zr-75-1; assay: in vitro cytotoxicity, Zr-75-1 breast cancer cells; settings: for percentage cell growth (Activity status in terms of IC50 values) Zr-75-1 Breast: 48 h continuous drug exposure, percent of cell growth relative to untreated control cells; for suppressing Zr-25-1 cell growth: suppression of cell growth, 48 h exposure
Experimental: as §1, §2

[4] = tested on: MCF7; assay: in vitro cytotoxicity, MCF7 breast cancer cells; settings: for percentage cell growth (Activity status in terms of IC50 values) MCF7 Breast: 48 h continuous drug exposure, percent of cell growth relative to untreated control cells; for suppress MCF7 cell growth: suppression of cell growth, 48 h exposure
Experimental: as §1, §2

[5] = tested on: Colo205; assay: in vitro cytotoxicity, Colo205 colon cancer cells; settings: for percentage cell growth (Activity status in terms of IC50 values) Colo205 Colon: 48 h continuous drug exposure, percent of cell growth relative to untreated control cells; for suppress Colo205 cell growth: suppression of cell growth, 48 h exposure
Experimental: as §1, §2

[6] = tested on: DWD; assay: in vitro cytotoxicity, DWD oral cancer cells; settings: for percentage cell growth (Activity status in terms of IC50 values) DWD Oral: 48 h continuous drug exposure, percent of cell growth relative to untreated control cells; for suppress DWD cell growth: suppression of cell growth, 48 h exposure
Experimental: as §1, §2

[7] = tested on: SiHa; assay: in vitro cytotoxicity, SiHa cervix cancer cells; settings: for percentage cell growth (Activity status in terms of IC50 values) SiHa Cervix: 48 h continuous drug exposure, percent of cell growth relative to untreated control cells; for suppressing the SiHa cell growth: suppression of cell growth, 48 h exposure
Experimental: as §1, §2

[8] = tested on: Hop62; assay: in vitro cytotoxicity, Hop62 lung cancer cells; settings: for percentage cell growth (Activity status in terms of IC50 values) Hop62 Lung: 48 h continuous drug exposure, percent of cell growth relative to untreated control cells; for suppress Hop62 cell growth: suppression of cell growth, 48 h exposure
Experimental: as §1, §2

[9] = tested on: PC3; assay: in vitro cytotoxicity, PC3 prostate cancer cells; settings: for percentage cell growth (Activity status in terms of IC50 values) PC3 Prostate: 48 h continuous drug exposure, percent of cell growth relative to untreated control cells; for suppress PC3 cell growth: suppression of cell growth, 48 h exposure
Experimental: as §1, §2

Structure (SMILES) | percentage cell growth (Activity status in terms of IC50 values) HT1080 Oral [1] [%] | percentage cell growth (Activity status in terms of IC50 values) DU145 Prostate [2] [%] | percentage cell growth (Activity status in terms of IC50 values) Zr-75-1 Breast [3] [%] | percentage cell growth (Activity status in terms of IC50 values) MCF7 Breast [4] [%] | percentage cell growth (Activity status in terms of IC50 values) Colo205 Colon [5] [%] | percentage cell growth (Activity status in terms of IC50 values) DWD Oral [6] [%] | percentage cell growth (Activity status in terms of IC50 values) SiHa Cervix [7] [%] | percentage cell growth (Activity status in terms of IC50 values) Hop62 Lung [8] [%] | percentage cell growth (Activity status in terms of IC50 values) PC3 Prostate [9] [%] | suppress HT1080 cell growth [1] [%] | suppress DU145 cell growth [2] [%] | suppressing Zr-25-1 cell growth [3] [%] | suppress MCF7 cell growth [4] [%] | suppress Colo205 cell growth [5] [%] | suppress DWD cell growth [6] [%] | suppressing the SiHa cell growth [7] [%] | suppress Hop62 cell growth [8] [%] | suppress PC3 cell growth [9] [%]
COc1cccc2c1C(=O)c1c(O)c3c(c(O)c1C2=O)C[C@@](O)(C(=O)CO)C[C@@H]3O[C@H]1C[C@H](N)[C@H](O)[C@H](C)O1 [ADR, adriamycin, reference compound] | 4 | 6 | 5 | 5 | 5 | 2 | 5 | 5 | 5 | – | – | – | – | – | – | – | – | –
COc1cc2c(cc1OCCCn1c(=O)nc(-c3ccccc3)c3cc(Cl)ccc31)N=C[C@@H]1CCCN1C2=O [Compound 5d, 7-Methoxy-8-[3-(6-chloro-2-oxo-4-phenyl-1,2-dihydro-1-quinazolinyl)propoxy]-(11aS)-1,2,3,11a-tetrahydro-5H-pyrrolo[2,1-c][1,4]benzodiazepine-5-one] | 9 | 8 | 8 | 12 | 8 | 5 | 16 | 6 | 11 | 91 | 92 | 92 | 88 | 92 | 95 | 84 | 94 | 89
COc1cc2c(cc1OCCCCCn1c(=O)nc(-c3ccccc3)c3cc(Cl)ccc31)N=C[C@@H]1CCCN1C2=O [Compound 5f, 7-Methoxy-8-[5-(6-chloro-2-oxo-4-phenyl-1,2-dihydro-1-quinazolinyl)pentyloxy]-(11aS)-1,2,3,11a-tetrahydro-5H-pyrrolo[2,1-c][1,4]benzodiazepine-5-one] | 8 | 10 | 8 | 8 | 15 | 5 | 16 | 5 | 7 | 92 | 90 | 92 | 92 | 85 | 95 | 84 | 95 | 93
